The values that follow come from ChEMBL document CHEMBL1148804, “Enzyme adaptation to inhibitor binding: a cryptic binding site in phenylethanolamine N-methyltransferase” (J Med Chem, 2007).

The test is filed under the species Homo sapiens. Put plainly: Ratio of Ki for wild type human PNMT to Ki for human PNMT K57 mutant.

`NS(=O)(=O)c1ccc2c(c1)CNCC2`: the Ratio Ki is 0.02.
